Drawing on PubChem BioAssay AID1259407 (Chemical Carcinogenesis Research Information System (CCRIS), 2018), this text covers mutagenic call for seven compounds.

For this data set, the system named is CCRIS mutagenicity, Ames/micronucleus/aberration tests. Nature of the data set: CCRIS mutagenicity studies.
Setting [1] is: Test System: AMES SALMONELLA TYPHIMURIUM, Strain/Indicator: TA98, Metabolic Activation: NONE, Method: STANDARD PLATE.
Setting [2] is: Test System: AMES SALMONELLA TYPHIMURIUM, Strain/Indicator: TA100, Metabolic Activation: NONE, Method: STANDARD PLATE.
Setting [3] is: Test System: AMES SALMONELLA TYPHIMURIUM, Strain/Indicator: TA1535, Metabolic Activation: NONE, Method: STANDARD PLATE.
[4] abbreviates: Test System: AMES SALMONELLA TYPHIMURIUM, Strain/Indicator: TA1537, Metabolic Activation: NONE, Method: STANDARD PLATE.

SMILES strings stand for the structures. Active and inactive are the calls of the source. How the calls were made is not given here.

On to `Cc1cccc(O)c1C`, for which the mutagenic call was “inactive; negative” (Test System: AMES SALMONELLA TYPHIMURIUM, Strain/Indicator: TA98, Metabolic Activation: NONE, Method: PREINCUBATION); “inactive; negative” (Test System: AMES SALMONELLA TYPHIMURIUM, Strain/Indicator: TA98, Metabolic Activation: RAT LIVER S-9, PHENOBARBITAL AND BETA-NAPHTHOFLAVONE, Method: PREINCUBATION); “inactive; negative” (Test System: AMES SALMONELLA TYPHIMURIUM, Strain/Indicator: TA100, Metabolic Activation: NONE, Method: PREINCUBATION); “inactive; negative” (Test System: AMES SALMONELLA TYPHIMURIUM, Strain/Indicator: TA100, Metabolic Activation: RAT LIVER S-9, PHENOBARBITAL AND BETA-NAPHTHOFLAVONE, Method: PREINCUBATION); “inactive; negative” (Test System: AMES SALMONELLA TYPHIMURIUM, Strain/Indicator: TA1535, Metabolic Activation: NONE, Method: PREINCUBATION); “inactive; negative” (Test System: AMES SALMONELLA TYPHIMURIUM, Strain/Indicator: TA1535, Metabolic Activation: RAT LIVER S-9, PHENOBARBITAL AND BETA-NAPHTHOFLAVONE, Method: PREINCUBATION). Also, the mutagenic call (Test System: AMES SALMONELLA TYPHIMURIUM, Strain/Indicator: TA1537, Metabolic Activation: NONE, Method: PREINCUBATION) is “inactive; negative”; the mutagenic call (Test System: AMES SALMONELLA TYPHIMURIUM, Strain/Indicator: TA1537, Metabolic Activation: RAT LIVER S-9, PHENOBARBITAL AND BETA-NAPHTHOFLAVONE, Method: PREINCUBATION) is “inactive; negative”; the mutagenic call (Test System: AMES SALMONELLA TYPHIMURIUM, Strain/Indicator: TA1538, Metabolic Activation: NONE, Method: PREINCUBATION) was “inactive; negative”; the mutagenic call (Test System: AMES SALMONELLA TYPHIMURIUM, Strain/Indicator: TA1538, Metabolic Activation: RAT LIVER S-9, PHENOBARBITAL AND BETA-NAPHTHOFLAVONE, Method: PREINCUBATION) was “inactive; negative”; the mutagenic call (Test System: E.COLI, Strain/Indicator: WP2UVRA, Metabolic Activation: NONE, Method: PREINCUBATION) was “inactive; negative”; the mutagenic call (Test System: E.COLI, Strain/Indicator: WP2UVRA, Metabolic Activation: RAT LIVER S-9, PHENOBARBITAL AND BETA-NAPHTHOFLAVONE, Method: PREINCUBATION) was “inactive; negative”.
`CC(=O)O[C@H]1[C@@]2(O)CC(C)(C)CC2=C(C=O)[C@@]2(C=O)C[C@@]12C`: the mutagenic call is “inactive; negative” under setting [1]; “active; positive” under setting [2]; “inactive; negative” (Test System: AMES SALMONELLA TYPHIMURIUM, Strain/Indicator: TA2637, Metabolic Activation: NONE, Method: STANDARD PLATE).
In the case of `O=[N+]([O-])c1cc2cccc3c4c(c5cccc1c5c23)CCCC4`, the mutagenic call (Test System: AMES SALMONELLA TYPHIMURIUM, Strain/Indicator: TA98, Metabolic Activation: NONE', Method: STANDARD PLATE) is “active; positive” and the mutagenic call under setting [2] is “active; positive”.
With `O=[N+]([O-])C1=Cc2cccc3c2c1cc1ccc2ccccc2c13`, the mutagenic call under setting [1] was “active; positive”; the mutagenic call (Test System: AMES SALMONELLA TYPHIMURIUM, Strain/Indicator: TA98, Metabolic Activation: RAT, LIVER, S-9, AROCLOR 1254, Method: STANDARD PLATE) is “inactive; negative”; the mutagenic call under setting [2] is “inactive; negative”; the mutagenic call (Test System: AMES SALMONELLA TYPHIMURIUM, Strain/Indicator: TA100, Metabolic Activation: RAT, LIVER, S-9, AROCLOR 1254, Method: STANDARD PLATE) was “active; positive”; the mutagenic call under setting [3] was “inactive; negative”; the mutagenic call (Test System: AMES SALMONELLA TYPHIMURIUM, Strain/Indicator: TA1535, Metabolic Activation: RAT, LIVER, S-9, AROCLOR 1254, Method: STANDARD PLATE) is “inactive; negative”. Besides, the mutagenic call by setting is: under setting [4], “active; positive”; (Test System: AMES SALMONELLA TYPHIMURIUM, Strain/Indicator: TA1537, Metabolic Activation: RAT, LIVER, S-9, AROCLOR 1254, Method: STANDARD PLATE) “active; positive”; (Test System: AMES SALMONELLA TYPHIMURIUM, Strain/Indicator: TA1538, Metabolic Activation: NONE, Method: STANDARD PLATE) “active; positive”; (Test System: AMES SALMONELLA TYPHIMURIUM, Strain/Indicator: TA1538, Metabolic Activation: RAT, LIVER, S-9, AROCLOR 1254, Method: STANDARD PLATE) “active; positive”.
Consider `O=C(CCl)Nc1snc2ccccc12`, for which the mutagenic call was “inactive; negative” under setting [1]; “active; positive” (Test System: AMES SALMONELLA TYPHIMURIUM, Strain/Indicator: TA98, Metabolic Activation: S-9, Method: STANDARD PLATE); “inactive; negative” under setting [2]; “active; positive” (Test System: AMES SALMONELLA TYPHIMURIUM, Strain/Indicator: TA100, Metabolic Activation: S-9, Method: STANDARD PLATE); “inactive; negative” under setting [3]; “inactive; negative” (Test System: AMES SALMONELLA TYPHIMURIUM, Strain/Indicator: TA1535, Metabolic Activation: S-9, Method: STANDARD PLATE). Also, the mutagenic call by setting is: under setting [4], “active; positive”; (Test System: AMES SALMONELLA TYPHIMURIUM, Strain/Indicator: TA1537, Metabolic Activation: S-9, Method: STANDARD PLATE) “active; positive”.
Take `O=NN1CN(N=O)CN(N=O)C1`: the mutagenic call was “inactive; negative” (Test System: Ames Salmonella typhimurium, Strain/Indicator: TA97a, Metabolic Activation: None, Method: Preincubation); “active; positive” (Test System: Ames Salmonella typhimurium, Strain/Indicator: TA97a, Metabolic Activation: Rat, Liver, S-9, Aroclor 1254, Method: Preincubation); “inactive; negative” (Test System: Ames Salmonella typhimurium, Strain/Indicator: TA98, Metabolic Activation: Rat, Liver, S-9, Aroclor 1254, Method: Preincubation); “inactive; negative” (Test System: Ames Salmonella typhimurium, Strain/Indicator: TA100, Metabolic Activation: Rat, Liver, S-9, Aroclor 1254, Method: Preincubation); “active; positive” (Test System: Ames Salmonella typhimurium, Strain/Indicator: TA102, Metabolic Activation: Rat, Liver, S-9, Aroclor 1254, Method: Preincubation).
Consider `C=CCCC1CO1` (configuration not stated), for which the mutagenic call under setting [2] is “active; positive” and the mutagenic call under setting [3] is “active; positive”.
